Data taken from patent US20230250095A1, “BENZIMIDAZOLE DERIVATIVES, PREPARATION METHOD THEREFOR AND MEDICAL USE THEREOF” (TUOJIE BIOTECH(SHANGHAI) CO., LTD., priority 2020, published 2023).

Legend:
[1] = Caco-2 permeability assay; format: in vitro ADME; conditions: human
Method: The apparent permeability coefficient (Papp) of the analytical drug was determined by liquid chromatography-tandem mass spectrometry (LC/MS/MS) through a Caco-2 cell model.
The transfer rate of drug from the apical end to the basal end was determined. 108 μL of HBSS (25 mM HEPES, pH 7.4) containing 10 μM test compound was added to the apical end of the upper chamber of Transwell (purchased from Corning) containing Caco-2 cells (purchased from ATCC) at a density of 6.86×10^5 cells/cm^2, and meanwhile, 8 μL of the sample was added, as an initial dosing-end sample (A-B), to a new 96-well plate to which 72 μL of HBSS (25 mM HEPES, pH 7.4) and 240 μL of acetonitrile (containing 100 nM alprazolam, 200 nM caffeine and 100 nM tolbutamide) had been added, and the plate was vortexed at 1000 rpm for 10 min. 300 μL of HBSS (25 mM HEPES, pH 7.4) was added to the basal end.
The transfer rate of drug from the basal end to the apical end was determined. 308 μL of HBSS (25 mM HEPES, pH 7.4) containing 10 μM test compound was added to wells of the basal end of the plate, and meanwhile, 8 μL of the sample was added, as an initial dosing-end sample (B-A), to a new 96-well plate to which 72 μL of HBSS (25 mM HEPES, pH 7.4) and 240 μL of acetonitrile (containing 100 nM alprazolam, 200 nM caffeine and 100 nM tolbutamide) had been added. The plate was vortexed at 1000 rpm for 10 min, and 100 μL of HBSS (25 mM HEPES, pH 7.4) was added to the apical end.
The transfer rate from the apical end to the basal end and the transfer rate from the basal end to the apical end need to be determined simultaneously.
At the end of the transfer cycle, 8 μL of the sample was taken from the dosing end (apical end of A-B flow and basal end of B-A flow) and added to 72 μL of HBSS (25 mM HEPES, pH 7.4) and 240 μL of acetonitrile (containing 100 nM alprazolam, 200 nM caffeine and 100 nM tolbutamide), and the mixture was added to a new 96-well plate. 80 μL of the liquid was taken directly from each of the basal end of the A-B flow and the apical end of the B-A flow, and added together with 240 μL of acetonitrile (containing 100 nM alprazolam, 200 nM caffeine and 100 nM tolbutamide) to a new 96-well plate. The plates were vortexed at 1000 rpm for 10 min. The samples were centrifuged at 4000 rpm for 30 min. 100 μL of the supernatant was transferred to a new 96-well plate. All samples were analyzed by LC-MS/MS with 100 μL of pure water.
Data were calculated using Microsoft Excel and peak areas were calculated from the chromatograms. The apparent permeability coefficient (Papp) is in cm/s and is calculated using the following formula: […]
Papp is apparent permeability (cm/s×10^−6);
The outflow ratio can be determined by the following equation: […]

[2] = In vivo pharmacokinetic experiment in rats, intragastric administration; conditions: SD rats, 5 mg/kg
Method: The drug concentrations in the plasma of the test animals (rats) at different time points after intragastric administration of the compound of the present disclosure were determined by an LC/MS/MS method. The pharmacokinetic behavior in rats of the compound of the present disclosure was studied and its pharmacokinetic profile was evaluated.
Male, healthy SD rats of SPF grade, 6-8 weeks old, 3 rats in each group.
Intragastric administration: a certain amount of compound was weighed and prepared into a 1 mg/mL white suspension by adding 0.5% by volume of hydroxypropyl methylcellulose, 0.1% by volume of tween 80 and 99.4% by volume of water.
SD rats were administered intragastrically with compound 4 or BLU-5937 at a dose of 5 mg/kg after fasting overnight.
Rats were administered intragastrically with the compound of the present disclosure. 0.2 mL of blood was collected from the jugular vein at 0.25 h, 0.5 h, 1 h, 2 h, 4 h, 8 h and 24 h after the administration, placed in a tube containing EDTA-K2, separated by centrifugation at 4° C. at 4000 rpm for 5 min to obtain plasma, which was stored at −75° C.
Determination of the content of the test compounds at different concentrations in the plasma of rats after intragastric administration: 50 μL of rat plasma at each time point after the administration was taken, 200 μL of a solution of internal standard dexamethasone (50 ng/mL) in acetonitrile was added thereto, and the mixture was vortexed for 30 s to be mixed well, centrifuged at 4° C. at 4700 rpm for 15 min. The supernatant of the plasma sample was subjected to 3-fold dilution with water, and 2.0 μL of the dilution was taken for LC/MS/MS analysis.

Papp A→B at 10 μM ([1]; Caco-2, 10 μM test compound, apical to basal, pH 7.4): 2.4 ×10⁻⁶ cm/s
efflux ratio at 10 μM ([1]; Caco-2, Papp (B-A)/Papp (A-B), read-out: Outflow ratio): 1.2
V [2]: 1.09 L/kg
Tmax ([2]; male, rat, plasma, po): 0.25 h
half-life ([2]; male, rat, plasma, po): 2.9 h
AUC(0-t) ([2]; male, rat, po, plasma): 361 ng·h/mL
Cmax ([2]; male, rat, po, plasma): 151 ng/mL
Compound: CNC(=O)c1cc(F)c(-c2nc3cc(C)ccn3c2C[C@H]2CN(C(=O)OC)CCO2)c(F)c1 [BLU-5937, reference compound]
